The NIST ThermoML archive (doi:10.1021/je200420u)

Columns and labels:
[1] = DTA
[2] = Molar enthalpy of transition or fusion; conditions: DSC
[3] = molar heat capacity at constant pressure; conditions: 101.33 kPa, Crystal 4, Small sample (50 mg) DSC

CCN1C(=O)CC(=O)N(CC)C1=S [1,3-diethyl-2-thiobarbituric acid]
Conditions	Molar enthalpy of transition or fusion [kJ/mol]	Triple point temperature [K]	molar heat capacity at constant pressure [J/K/mol]
[1], Crystal	–	377.1	–
[2], Crystal	35.5	–	–
[3], 265.15 K	–	–	213.5
[3], 270.15 K	–	–	217.3
[3], 273.15 K	–	–	219.8
[3], 275.15 K	–	–	221.2
[3], 280.15 K	–	–	224.5
[3], 285.15 K	–	–	227.7
[3], 290.15 K	–	–	230.4
[3], 295.15 K	–	–	233.7
[3], 298.15 K	–	–	236.9
[3], 300.15 K	–	–	238.9
[3], 305.15 K	–	–	240.8
[3], 310.15 K	–	–	244.8
[3], 315.15 K	–	–	249.8
[3], 320.15 K	–	–	252.9
[3], 325.15 K	–	–	256.1
[3], 330.15 K	–	–	259.7
[3], 335.15 K	–	–	263.1
[3], 340.15 K	–	–	266.5
[3], 345.15 K	–	–	269.7
[3], 350.15 K	–	–	273.3
[3], 355.15 K	–	–	277.8
[3], 360.15 K	–	–	282.3
[3], 365.15 K	–	–	287.2

Oc1cc(O)nc(S)n1 [2-mercapto-4,6-pyrimidinediol]
Conditions	Molar enthalpy of transition or fusion [kJ/mol]	Triple point temperature [K]	molar heat capacity at constant pressure [J/K/mol]
[1], Crystal 1	–	516.4	–
[1], Crystal 2	–	498	–
[1], Crystal 3	–	475.8	–
[1], Crystal 4	–	447.2	–
[2], Crystal 1	14.8	–	–
[2], Crystal 2	0.3	–	–
[2], Crystal 3	0.2	–	–
[2], Crystal 4	0.7	–	–
[3], 265.15 K	–	–	124.3
[3], 270.15 K	–	–	126.6
[3], 273.15 K	–	–	128
[3], 275.15 K	–	–	128.8
[3], 280.15 K	–	–	131.1
[3], 285.15 K	–	–	132.5
[3], 290.15 K	–	–	134.2
[3], 295.15 K	–	–	136.2
[3], 298.15 K	–	–	137.2
[3], 300.15 K	–	–	138.6
[3], 305.15 K	–	–	140
[3], 310.15 K	–	–	142.2
[3], 315.15 K	–	–	144.7
[3], 320.15 K	–	–	146.3
[3], 325.15 K	–	–	147.9
[3], 330.15 K	–	–	150.1
[3], 335.15 K	–	–	152
[3], 340.15 K	–	–	153.8
[3], 345.15 K	–	–	155.2
[3], 350.15 K	–	–	156.6
[3], 355.15 K	–	–	158.4
[3], 360.15 K	–	–	160.2
[3], 365.15 K	–	–	162.6
[3], 370.15 K	–	–	164.7
[3], 375.15 K	–	–	166
[3], 380.15 K	–	–	167.7
[3], 385.15 K	–	–	169.2
[3], 390.15 K	–	–	171
[3], 395.15 K	–	–	172.3
[3], 400.15 K	–	–	174.8
[3], 405.15 K	–	–	175.9
[3], 410.15 K	–	–	177.2
[3], 415.15 K	–	–	178.5
[3], 420.15 K	–	–	179.8
[3], 425.15 K	–	–	181.3
[3], 430.15 K	–	–	182.9
